In patent EP4385979A1 (Grünenthal GmbH, priority 2022, dated 2024):

Target: T1, human NaV1.8 (Homo sapiens, UniProt Q9Y5Y9)
T1 construct: expressed in transfected cells; host or cells: HEK
Assay: Electrophysiology: voltage-clamp recordings, whole-cell patch clamp on Qube384 automated platform
Assay type: cell-based
Conditions: HEK-NaV1.8 (NM 006514.1) with b3 recombinant cell line, multi hole plates, ambient room temperature, read-out: Potency category (human NaV1.8 IC50)
Description: Electrophysiology: Voltage-Clamp recordings
The following NaV1.8 recombinant cell line was used for recordings: HEK-NaV1.8 (NM 006514.1) with b3 (NM_018400.3).
Sodium currents were measured using the patch clamp technique in the whole-cell configuration using the Qube384 (Sophion A/S, Copenhagen, Denmark) automated voltage clamp platform. "Multi hole" plates were used for the cell line expressing NaV1.8 while "single hole" plates were used for the recombinant cell lines expressing the other subtypes. Appropriate filters (for minimum seal resistance and minimum current size) and series resistance compensation (for high quality sodium channel recordings) were applied. Data was collected at ambient room temperature.
The recording […] solution contained (in mM): NaCl 145 mM, KCl 4 mM, CaCl2 2 mM, MgCl2 1 mM, HEPES 10 mM, Glucose 10 mM, pH 7.4 (NaOH). The […] recording solution contained (in mM): CsF 120 mM, CsCl 20 mM, NaCl 10 mM, EGTA 10 mM, HEPES 10 mM, pH 7.2 (CsOH). Currents were recorded at 25 kHz sampling frequency and filtered at 5 kHz. Series resistance compensation was applied at 65%.
Vehicle (VEH) is the control condition where cells are exposed to 0.3 % DMSO without compound. All runs include VEH controls being exposed to the same voltage protocols to assess non-compound related phenomena such as run down and then used to isolate compound dependent effects on currents.
To check for state-dependence inhibition, the following voltage-sequence was applied every 20 seconds: From a resting membrane potential of-120 mV, the first test pulse (P1; 20 ms to -10 mV) was applied to check for channels in the Resting State followed by a brief recovery (20 ms to -120 mV), then holding the membrane voltage to V1/2 (4 seconds at voltage to obtain half the channel at Rest and half Inactivated) with a subsequent second test pulse (P2; 20 ms to -10 mV) to check for channels in the Inactivated State, followed by another brief recovery (20 ms to -120 mV) and a final third test pulse (P3; 20 ms to -10 mV) to check for recovered channels.
To check for frequency-dependent inhibition, a 10 Hz protocol and a 20 Hz protocol were applied; namely,
From a resting membrane potential of -120 mV, 40-pulses (10 ms to -10 mV) was applied at 10 Hz (at 100 ms between pulses) and then at 20 Hz (at 50 ms between pulses). Each parameter was recorded (P1, P2, P3, P40 from 10Hz and P40 from 20Hz) during a control period (lasting ~ 5 minutes) when establishing the baseline and during compound period (lasting ~ 12 minutes) when test compound (or vehicle) was applied. For each parameter, the value at the end of the compound period was normalized to the vehicle baseline; as follows Normalized Inhibition (NormCPD) = (CPD Valueend CPD period)/(VEH Valueend Control Period) [formula]
To adjust for any variance in the Na^+ current signal during the compound period (owing to cumulative inactivation independent of compound or shifts in biophysics over time), a dedicated segment of the recording wells in each 384 plate were dedicated to having only vehicle exposure. These vehicle-only recordings were used to correct for any apparent "run-up" or "run-down" in the experiment. Normalized Inhibition (NormVEH) = (VEH Valueend CPD period)/(VEH Valueend Control Period) [formula]
The adjusted inhibition was calculated as follows: % Inhibitioncorrected = 100 × (NormCPD −NormVEH)/(100−NormVEH) [formula]
Percent inhibition was determined and IC50 values were calculated using a 4 parameter logistic model within XLFit Software (IDBS, Boston MA): % Inhibitioncorrected = A + ((B−A))/((1 + (((x)/(C)))^D) [formula] where A and B are the maximal and minimum inhibition respectively, C is the IC50 concentration and D is the (Hill) slope.

T1 sequence (Q9Y5Y9 whole entry): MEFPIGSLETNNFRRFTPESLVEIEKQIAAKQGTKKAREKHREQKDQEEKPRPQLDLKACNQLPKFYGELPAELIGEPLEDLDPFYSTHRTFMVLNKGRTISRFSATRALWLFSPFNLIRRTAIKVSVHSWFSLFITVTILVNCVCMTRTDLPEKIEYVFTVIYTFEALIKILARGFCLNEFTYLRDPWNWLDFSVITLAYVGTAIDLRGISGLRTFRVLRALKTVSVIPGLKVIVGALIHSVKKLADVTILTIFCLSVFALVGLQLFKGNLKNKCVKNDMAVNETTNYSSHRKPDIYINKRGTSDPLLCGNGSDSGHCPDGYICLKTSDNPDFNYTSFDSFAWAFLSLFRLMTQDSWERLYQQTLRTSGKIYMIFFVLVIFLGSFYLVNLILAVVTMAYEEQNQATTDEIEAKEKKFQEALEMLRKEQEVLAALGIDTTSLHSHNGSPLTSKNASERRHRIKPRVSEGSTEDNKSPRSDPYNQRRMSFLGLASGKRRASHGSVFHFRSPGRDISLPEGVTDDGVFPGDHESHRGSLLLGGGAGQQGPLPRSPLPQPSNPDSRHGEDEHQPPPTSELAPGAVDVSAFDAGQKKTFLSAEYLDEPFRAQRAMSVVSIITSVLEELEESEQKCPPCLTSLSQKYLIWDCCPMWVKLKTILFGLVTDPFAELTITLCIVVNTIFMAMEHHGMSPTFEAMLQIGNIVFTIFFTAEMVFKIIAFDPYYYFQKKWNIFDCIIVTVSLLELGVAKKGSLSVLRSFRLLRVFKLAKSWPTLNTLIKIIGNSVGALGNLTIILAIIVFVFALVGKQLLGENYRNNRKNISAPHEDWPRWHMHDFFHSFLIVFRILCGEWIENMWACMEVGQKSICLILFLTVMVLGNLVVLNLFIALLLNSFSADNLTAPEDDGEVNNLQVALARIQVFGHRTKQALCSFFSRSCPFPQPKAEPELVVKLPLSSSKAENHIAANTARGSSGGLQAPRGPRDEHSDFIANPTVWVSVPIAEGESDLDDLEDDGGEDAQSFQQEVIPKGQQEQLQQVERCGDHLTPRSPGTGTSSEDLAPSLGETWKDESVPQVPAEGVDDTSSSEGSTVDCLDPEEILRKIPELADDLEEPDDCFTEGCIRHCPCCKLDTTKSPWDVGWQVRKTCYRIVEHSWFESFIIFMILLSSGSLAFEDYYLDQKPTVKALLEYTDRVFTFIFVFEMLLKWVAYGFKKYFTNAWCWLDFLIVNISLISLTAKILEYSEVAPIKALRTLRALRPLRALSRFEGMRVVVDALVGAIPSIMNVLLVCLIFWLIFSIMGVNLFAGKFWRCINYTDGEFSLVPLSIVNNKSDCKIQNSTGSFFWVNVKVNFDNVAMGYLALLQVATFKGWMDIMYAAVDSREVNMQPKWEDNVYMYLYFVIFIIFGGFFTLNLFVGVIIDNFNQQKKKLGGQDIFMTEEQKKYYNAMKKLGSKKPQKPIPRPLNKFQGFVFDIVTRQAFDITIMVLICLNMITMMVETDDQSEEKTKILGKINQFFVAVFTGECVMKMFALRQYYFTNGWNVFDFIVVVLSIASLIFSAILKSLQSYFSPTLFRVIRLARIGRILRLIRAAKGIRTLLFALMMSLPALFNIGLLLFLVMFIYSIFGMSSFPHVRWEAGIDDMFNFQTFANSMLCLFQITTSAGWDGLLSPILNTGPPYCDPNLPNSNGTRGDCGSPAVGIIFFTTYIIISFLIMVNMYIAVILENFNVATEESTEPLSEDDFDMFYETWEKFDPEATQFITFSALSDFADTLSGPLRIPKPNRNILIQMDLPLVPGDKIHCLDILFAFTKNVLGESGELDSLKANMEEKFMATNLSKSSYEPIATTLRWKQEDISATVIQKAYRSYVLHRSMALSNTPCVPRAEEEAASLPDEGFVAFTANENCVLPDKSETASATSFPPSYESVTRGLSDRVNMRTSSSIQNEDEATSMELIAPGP

IC50	SMILES
≤ 0.1 µM	Cc1c(C(F)(F)F)nn(CC23CC(C(F)(F)F)(C2)C3)c1C(=O)Nc1ccnc(C(N)=O)c1 [Example 8, 4-(4-methyl-3-(trifluoromethyl)-1-((3-(trifluoromethyl)bicyclo [1.1.1]pentan-1-yl)methyl)-1H-pyrazole-5-carboxamido)picolinamide]
≤ 0.1 µM	CS(=O)(=O)c1cc(NC(=O)c2c(C(F)(F)F)c(C3CC3)nn2CC23CC(C(F)(F)F)(C2)C3)ccn1 [Example 28, 3-cyclopropyl-N-(2-(methylsulfonyl)pyridin-4-yl)-4-(trifluoromethyl)-1-((3-(trifluoromethyl)bicyclo[1.1.1]pentan-1yl)methyl)-1H-pyrazole-5-carboxamide]
0.1 to 1 µM	Cc1nn(CC23CC(CO2)C3)c(C(=O)Nc2ccc(F)c(C(N)=O)c2)c1C(F)(F)F [Example 39, 1-((2-oxabicyclo[2.1.1]hexan-1-yl)methyl)-N-(3-carbamoyl-4-fluorophenyl)-3-methyl-4-(trifluoromethyl)-1H-pyrazole-5-carboxamide]
0.1 to 1 µM	Cc1nn(CC23CC(F)(C2)C3)c(C(=O)Nc2ccnc(C(N)=O)c2)c1C(F)(F)F [Example 1, 4-(1-((3-fluorobicyclo[1.1.1]pentan-1-yl)methyl)-3-methyl-4-(trifluoromethyl)-1H-pyrazole-5-carboxamido)picolinamide]
≤ 0.1 µM	Cc1nn(CC23CCC(C2)C3)c(C(=O)Nc2ccc(F)c(C(N)=O)c2)c1C(F)(F)F [Example 36, 1-(bicyclo[2.1.1]hexan-1-ylmethyl)-N-(3-carbamoyl-4-fluorophenyl)-3-methyl-4-(trifluoromethyl)-1H-pyrazole-5-carboxamide]
≤ 0.1 µM	CS(=O)(=O)c1cc(NC(=O)c2c(C(F)(F)F)c(C3CC3)nn2CC23CC(F)(C2)C3)ccn1 [Example 21, 3-cyclopropyl-1-((3-fluorobicyclo [1.1.1]pentan-1-yl)methyl)-N-(2-(methylsulfonyl)pyridin-4-yl)-4-(trifluoromethyl)-1H-pyrazole-5-carboxamide]
≤ 0.1 µM	Cc1c(C(C)(F)F)nn(CC23CC(C(F)(F)F)(C2)C3)c1C(=O)Nc1ccnc(S(C)(=O)=O)c1 [Example 25, 3-(1,1-difluoroethyl)-4-methyl-N-(2-(methylsulfonyl)pyridin-4-yl)-1-((3-(trifluoromethyl)bicyclo[1.1.1]pentan-1yl)methyl)-1H-pyrazole-5-carboxamide]
≤ 0.1 µM	Cc1c(C(C)(F)F)nn(CC2(C)CC(F)(F)CC2C)c1C(=O)Nc1ccnc(C(N)=O)c1 (single isomer, unassigned) [Example 10b, 4-(1-((4,4-difluoro-1,2-dimethylcyclopentyl)methyl)-3-(1,1-difluoroethyl)-4-methyl-1H-pyrazole-5-carboxamido)picolinamide]
≤ 0.1 µM	Cc1c(C(C)(F)F)nn(CC2(C)CC(F)(F)CC2C)c1C(=O)Nc1ccnc(C(N)=O)c1 (single isomer, unassigned) [Example 10c, 4-(1-((4,4-difluoro-1,2-dimethylcyclopentyl)methyl)-3-(1,1-difluoroethyl)-4-methyl-1H-pyrazole-5-carboxamido)picolinamide]
0.1 to 1 µM	Cc1nn(CC23CC(C(F)(F)F)(C2)C3)c(C(=O)Nc2ccnc(S(C)(=O)=O)c2)c1C(F)(F)F [Example 26, 3-methyl-N-(2-(methylsulfonyl)pyridin-4-yl)-4-(trifluoromethyl)-1-((3-(trifluoromethyl)bicyclo[1.1.1]pentan-1yl)methyl)-1H-pyrazole-5-carboxamide]
0.1 to 1 µM	Cc1c(C(F)(F)F)nn(CC23CC(C(F)(F)F)(C2)C3)c1C(=O)Nc1ccnc(S(C)(=O)=O)c1 [Example 27, 4-methyl-N-(2-(methylsulfonyl)pyridin-4-yl)-3-(trifluoromethyl)-1-((3-(trifluoromethyl)bicyclo[1.1.1]pentan-1yl)methyl)-1H-pyrazole-5-carboxamide]
≤ 0.1 µM	Cc1c(C(C)(F)F)nn(CC2(C)CC(F)(F)CC2C)c1C(=O)Nc1ccnc(S(N)(=O)=O)c1 (single isomer, unassigned) [Example 43d, 1-((4,4-difluoro-1,2-dimethylcyclopentyl)methyl)-3-(1,1-difluoroethyl)-4-methyl-N-(2-sulfamoylpyridin-4-yl)-1H-pyrazole-5-carboxamide]
1 to 10 µM	NS(=O)(=O)c1cccc(NC(=O)c2c(C(F)(F)F)cnn2CC23CC(CO2)C3)c1 [Example 30, 1-((2-oxabicyclo[2.1.1]hexan-1-yl)methyl)-N-(3-sulfamoylphenyl)-4-(trifluoromethyl)-1H-pyrazole-5-carboxamide]
1 to 10 µM	CS(=O)(=O)n1cc(NC(=O)c2c(C(F)(F)F)cnn2CC2CC3(CC3)C2)cn1 [Example 48, N-(1-(methylsulfonyl)-1H-pyrazol-4-yl)-1-(spiro[2.3]hexan-5-ylmethyl)-4-(trifluoromethyl)-1H-pyrazole-5-carboxamide]
0.1 to 1 µM	CS(=O)(=O)c1cc(NC(=O)c2c(C(F)(F)F)c(C3CC3)nn2CC23CC(CO2)C3)ccn1 [Example 24, 1-((2-oxabicyclo[2.1.1]hexan-1-yl)methyl)-3-cyclopropyl-N-(2-(methylsulfonyl)pyridin-4-yl)-4-(trifluoromethyl)-1H-pyrazole-5-carboxamide]

SMILES	IC50
Cc1nn(CC23CC(C2)C3)c(C(=O)Nc2ccc(F)c(C(N)=O)c2)c1C(F)(F)F [Example 40, 1-(bicyclo[1.1.1]pentan-1-ylmethyl)-N-(3-carbamoyl-4-fluorophenyl)-3-methyl-4-(trifluoromethyl)-1H-pyrazole-5-carboxamide]	0.1 to 1 µM
COC12CC(Cn3nc(C4CC4)c(C(F)(F)F)c3C(=O)Nc3ccnc(S(C)(=O)=O)c3)(C1)C2 [Example 20]	0.1 to 1 µM
NS(=O)(=O)c1cccc(NC(=O)c2c(C(F)(F)F)cnn2CC23CC(C2)C3)c1 [Example 32, 1-(bicyclo [1.1.1]pentan-1-ylmethyl)-N-(3-sulfamoylphenyl)-4-(trifluoromethyl)-1H-pyrazole-5-carboxamide]	0.1 to 1 µM
NC(=O)c1cc(NC(=O)c2c(C(F)(F)F)cnn2CC23CC(C2)C3)ccc1F [Example 38, 1-(bicyclo[1.1.1]pentan-1-ylmethyl)-N-(3-carbamoyl-4-fluorophenyl)-4-(trifluoromethyl)-1H-pyrazole-5-carboxamide]	1 to 10 µM
Cc1c(C(C)(F)F)nn(CC23CC(F)(C2)C3)c1C(=O)Nc1ccnc(C(N)=O)c1 [Example 2, 4-(3-(1,1-difluoroethyl)-1-((3-fluorobicyclo [1.1.1]pentan-1-yl)methyl)-4-methyl-1H-pyrazole-5-carboxamido)picolinamide]	0.1 to 1 µM
NC(=O)c1cc(NC(=O)c2c(C(F)(F)F)cnn2CC2CC3(CC3)C2)ccc1F [Example 41, N-(3-carbamoyl-4-fluorophenyl)-1-(spiro[2.3]hexan-5-ylmethyl)-4-(trifluoromethyl)-1H-pyrazole-5-carboxamide]	0.1 to 1 µM
NC(=O)c1cc(NC(=O)c2c(C(F)(F)F)cnn2CC23CCC(C2)C3)ccc1F [Example 42, 1-(bicyclo[2.1.1]hexan-1-ylmethyl)-N-(3-carbamoyl-4-fluorophenyl)-4-(trifluoromethyl)-1H-pyrazole-5-carboxamide]	≤ 0.1 µM
